Test systems include HCT-15 colon; SK-MEL-2 melanoma; MDA-MB-231 breast; SF-268 CNS; BT-549 breast; OVCAR-3 ovarian; RXF 393 renal; NCI-H23 lung; NCI-H522 lung; HOP-62 NSCLC.
Common to all, as to experiment: DTP human tumour cell line panel, 48 h

We go through three compounds from PubChem BioAssay (NCI).

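Where inhibition never reached the appropriate level, the endpoint shown equals the highest concentration tested. Otherwise, values were interpolated linearly from a five-concentration, 48-hour dose response in 96-well plates. TGI denotes the concentration required for complete inhibition of growth.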

`CCN1CC2(C)CCC(OC)C34C5CC6CCC(O)(C5C(=O)O6)C(C(O)C23)C14` (stereo not given): the TGI in the test on HCT-15 colon, in the test on SK-MEL-2 melanoma, with MDA-MB-231 breast, in the test with SF-268 CNS, in the test on BT-549 breast and with OVCAR-3 ovarian was above 100 µM in each case. The TGI with RXF 393 renal, in the test on NCI-H23 lung, with NCI-H522 lung and with HOP-62 NSCLC was above 100 µM throughout.

As for `C=C1c2nc3ccccc3n2C=C(c2ccc(C)cc2)N1c1ccc(OC)cc1`, the total growth inhibition concentration (TGI) in the test on HCT-15 colon, with SK-MEL-2 melanoma, with MDA-MB-231 breast, in the test with SF-268 CNS, in the test on BT-549 breast and in the test with OVCAR-3 ovarian was above 100 µM each time. Besides, the TGI is above 100 µM with RXF 393 renal, above 100 µM with NCI-H23 lung, above 77.7 µM in the test on NCI-H522 lung and above 100 µM with HOP-62 NSCLC.

Consider `Cn1c(=O)c2c(nc3[nH]c(=O)c(Br)cn32)n(C)c1=O`, for which the TGI with HCT-15 colon, with SK-MEL-2 melanoma, in the test with MDA-MB-231 breast, with SF-268 CNS, with BT-549 breast and in the test with OVCAR-3 ovarian was above 100 µM each time. The TGI in the test on RXF 393 renal, in the test with NCI-H23 lung, in the test with NCI-H522 lung and in the test on HOP-62 NSCLC was above 100 µM in each case.
